1 compound from publication PMC12801355, “Peptide Amphiphiles Hitchhike on Endogenous Biomolecules for Enhanced Cancer Imaging and Therapy” (Advanced Materials (Deerfield Beach, Fla.), 2025) can be followed below.

Data set [1] is described as follows: Stability of PA nanostructures in plasma (fluorescence recovery). The class given is in vitro ADME, human. The procedure:
ICG or Cy5 conjugated PAs were dissolved in PBS (10 mM, pH 7.4) at a concentration of 1 or 100 µM, and 90 µL aliquots of these solutions were added to a 96 well plate (4 wells for each PA). Then, 10 µL of pooled human plasma was added to each well, and fluorescence spectra of ICG or Cy5 were recorded using a microplate reader (TECAN Spark 20 M) at different time points.

Data set [2] deals with 4T1 tumor. The data set is described as follows: Biodistribution in tumor‐bearing mice. The class given is in vivo, mouse. To be noted: 4T1, 2 days after 50 nmol IV, tissue homogenates, plate reader, mean ± SEM. The procedure: For biodistribution studies in 4T1 and MC38 tumor models in wild type, ApoA1 ‐/‐, or LDL‐R ‐/‐ mice, 100 µL of ICG conjugated PAs or free ICG (0.5 mM) were intravenously injected. 2 days after injection, the mice were euthanized, and tumors and organs were excised and analyzed in the IVIS (PerkinElmer) for ICG.
To determine the percentage of the injected dose of SA‐E in tissues, 4T1 tumor, spleen, kidney, lung, and colon tissues were harvested from 5 mice 2 days after ICG conjugated SA‐E (IV, 100 µL, 0.5 mM). Organ weights were measured for normalization. Tissues were homogenized in gentleMACS M Tube containing 1 mL of PBS and equipped with a 600 µm mesh strainer using a gentleMACS dissociator as described above. The resulting tissue homogenates were transferred into a 96‐well plate for fluorescence measurement using a microplate reader (TECAN Spark 20 M). Additionally, organ tissues from healthy mice without probe injection were harvested and homogenized to prepare calibration curves. ICG conjugated SA‐E was spiked into tissue samples at different concentrations, and fluorescence intensities were measured using a microplate reader (TECAN Spark 20 M). For biodistribution studies with 10 mol% ICG containing micelles, ICG conjugated PAs were mixed with maleimide blocked PAs to achieve a final concentration of 0.25 mM ICG conjugated PAs and 2.5 mM total peptides. […]

Data set [3] is described as follows: PA fluorescence in liver homogenates. The class given is in vitro ADME. To be noted: ICG conjugated, 0.1 to 10 µM spiked into mouse liver homogenate, IVIS. The procedure: Liver samples (6.2 g total weight) collected from healthy BALB/cJ mice were placed in a gentleMACS M Tube containing 2 mL of PBS. The M Tube was fitted with a 600 µm mesh strainer, and homogenization was performed using a gentleMACS Dissociator by running a one‐minute program at 1260 rotations per round (rpr) for five cycles. ICG conjugated SA‐E and SA‐K were then spiked into the liver homogenates in a 96‐well plate at final concentrations of 0, 0.1, 0.5, 2.0, 5.0, and 10 µM. Fluorescence signals from the homogenates were measured using an IVIS (PerkinElmer).

Where a SMILES comes first, the peptide text is derived from it. The star is where a group is joined. Palmitoyl = CCCCCCCCCCCCCCCC(=O)*

As for `CCCCCCCCCCCCCCCC(=O)NCC(=O)NCC(=O)NCC(=O)N[C@@H](Cc1c[nH]cn1)C(=O)N[C@@H](C)C(=O)N[C@@H](C)C(=O)N[C@@H](CC(N)=O)C(=O)NCC(=O)N[C@@H](CCC(=O)O)C(=O)N[C@@H](CCC(=O)O)C(=O)N[C@@H](CS)C(=O)N[C@@H](CCC(=O)O)C(=O)O` [SA‐E] (Palmitoyl-GGGHAANGEECE-OH), the “increase in Cy5 fluorescence in plasma relative to SA‐K” value in data set [1] (Cy5 conjugated PAs 100 µM, 10% human plasma, 1 h) is on record as “≈ 10 fold”. The “increase in ICG fluorescence in plasma relative to SA‐K (micelle disassembly)” value in data set [1] (ICG conjugated PAs 1 or 100 µM in PBS pH 7.4 with 10% pooled human plasma, over 2 h, plate reader, larger and more rapid than SA‐K) is “approximately three‐fold”. For the same compound, the “concentration in the tumor” value in data set [2] (5 mice) was 1.9% ± 0.4 %ID / g tissue. Moreover, in data set [2], the concentration in liver is reported as 0.8% ± 0.1 %ID / g tissue. Moreover, the “fluorescence in liver homogenates, SA‐E versus SA‐K (disassembly)” value in data set [3] is given as “almost identical fluorescence intensity”.
